Source: PMC11969438 (Inorganic Chemistry Frontiers, 2025)

What was measured:
[1] = tested on: NF-κB pathway (STING-dependent); assay: NF-κB-inducible SEAP reporter in THP1-Dual reporter cell model; type: cell-based, human; conditions: for EC50: 24 h exposure, normalized to cell viability, oxaliplatin in combinations 5 μM
Excerpt: (§1) The THP1-Dual™ reporter cell model for simultaneously monitoring the activity of the IRF and NF-κB pathway contains an IRF-inducible luciferase reporter under the control of an ISG54 minimal promoter in conjunction with five interferon (IFN)-stimulated response elements, and an induced SEAP driven by an IFN-β minimal promoter fused to five copies of the NF-κB consensus transcriptional response element and three copies of the c-Rel binding site. The luciferase and SEAP reporter are measurable in the cell culture supernatant using QUANTI-Luc™ 4 Lucia/Gaussia (InvivoGen) and QUANTI-Blue™ (InvivoGen) solution, respectively. Cells were seeded at 1 × 10^5 cells per well in 96-well plates in RPMI-1640 medium, supplemented with 10% FCS, L-glutamine and Pen-Strep. After 2 h of recovery, the compounds were applied at the concentrations indicated in triplicate. The cell culture supernatant (SN) was collected after 24 h of drug incubation and secreted luciferase and SEAP reporter levels were measured according to the manufacturer's recommendations. In brief, for the detection of luciferase, 20 μL of SN were transferred into 96-well white opaque plates, and 30 μL of QUANTI-Luc™ reagent were added per well using an injector module in a multimode microplate reader (Tecan Spark, Zurich, Switzerland). Luminescence was recorded at a reading time of 0.1 second. For the detection of SEAP, 10 μL of SN were transferred to 96-well plates and 90 μL of QUANTI-Blue™ were added per well. Absorbance was measured at 620 nm. Half-maximal effective concentrations (EC50 values) were derived via interpolation from dose–response curves, modeled with the four-parameter logistic (4PL) nonlinear regression model in GraphPad Prism. For comparison, the maximal response rate of the prodrug was depicted in the percent of the maximal response rate achieved by SR-717 or MSA-2 (%EMAX) at the respective concentrations tested. Activatability, tested in co-incubation experiments with AA (50 μM), was expressed as the area under the curve (AUC) ratio of +AA vs. −AA-treated cells. The STING-dependency of the reporter induction was tested by co-administration of the STING inhibitor H-151 (10 μM), added to the cell culture medium 2 h before applying the investigated compounds. In addition to monitoring secreted reporter levels, the cell viability of the reporter cells was determined after 24 h of drug treatment by an MTT-based cell viability assay.

[2] = tested on: IRF pathway (STING-dependent); assay: IRF-inducible luciferase reporter in THP1-Dual reporter cell model; type: cell-based, human; conditions: for EC50: 24 h exposure, normalized to cell viability, oxaliplatin in combinations 5 μM
Excerpt: as §1

CT-26 tumors = assay: Anticancer efficacy in vivo, syngeneic colorectal carcinoma; set-up: species or system BALB/c mice; conditions: i.v. twice a week for two weeks, equimolar to 9 mg kg^−1 oxaliplatin
Description: Tumor size was determined daily via manual caliper measurement. […] Animals were euthanized via cervical dislocation.

THP1-Dual cells [3] = assay: Quantitative RT-PCR of target genes downstream of STING; type: cell-based, human; conditions: 24 h, prodrugs 100 μM, MSA-2 25 μM
Description: The THP1-Dual cell model was seeded at 1 × 10^6 cells per well in six-well plates. After 24 h of recovery, the compounds were applied at the concentrations indicated. After 24 h of drug exposure, total RNA was isolated using TRIzol reagent (Thermo Fisher Scientific, MA, USA), as described previously.[12] RNA was reverse transcribed into cDNA using RevertAid Reverse Transcriptase (Thermo Fisher Scientific). Real-time PCR was performed using the GoTaq® RT-qPCR system (Promega) with a CFX96 Touch Real-Time PCR Detection System (Bio-Rad Laboratories). Relative mRNA levels were quantified using the 2^−ddCT method.[54] RPL41 was used as a housekeeping gene. Human-specific primers were purchased from Eurofins Genomics (Ebersberg, Germany) with the following sequences: RPL41: fwd (5′-[…]-3′), rev (5′-[…]-3′); IFNB1: fwd (5′-CTTGGATTCCTACAAAGAAGCAGC-3′), rev (5′-[…]-3′); ISG15: fwd (5′-[…]-3′), rev (5′-[…]-3′); IFIT1: fwd (5′-[…]-3′), rev (5′-[…]-3′); CXCL10: fwd (5′-[…]-3′), rev (5′-[…]-3′); and CCL5: fwd (5′-[…]-3′), rev (5′-[…]-3′).

THP1-Dual cells [4] = assay: Cytokine and chemokine secretion in cell culture supernatant, Luminex; type: cell-based, human; conditions: 24 h, prodrug 100 μM, MSA-2 25 μM
Description: Quantification of secreted protein targets in either cell culture SN or in plasma of treated animals was performed using a ProcartaPlex (96-well) multiplex assay panel (Thermo Fisher Scientific) in the xMAP detection platform (Luminex). For the in vitro detection of secreted proteins, THP1-Dual cells were seeded at 1 × 10^5 cells per well in 96-well plates in RPMI-1640 medium, supplemented with 10% FCS, L-glutamine and Pen-Strep. After 24 h of recovery, the compounds were applied at the concentrations indicated in triplicate.
After 24 h of drug incubation, the cell culture SN of technical triplicate was collected, pooled, centrifuged (400g, 10 min, 4 °C), transferred into a fresh tube, and stored at −20 °C.
Next, the ProcartaPlex (96-well) multiplex assay panel was performed according to the manufacturer's recommendations. In brief, the capture bead mix was incubated with test samples (undiluted SN or mouse plasma) or standard mix overnight. The SN of three independent experiments or the plasma of four animals per treatment group was loaded onto the multiplex assay plate. Next, biotinylated detection antibody mix and Streptavidin-PE were added to the plate. Following the recommended washing steps, the samples were incubated in a reading buffer and were measured using a Luminex xMAP platform (Bio-Plex MAGPIX Multiplex Reader; Bio-Rad Laboratories) and analyzed using xPONENT software.

[5] = tested on: THP1-Dual, HCT116, HCT116/OxR and CT-26 cells; assay: MTT-based cell viability assay, 72 h, statements over all investigated cell lines; set-up: species or system human and murine; conditions: none of the investigated cell lines vulnerable, read-out: IC50 of free single agent
Description: Cell models were seeded (2–2.5 × 10^3 cells per well) in 96-well plates. After 24 h of recovery, the compounds were applied at the concentrations indicated in triplicate. Cell viability was determined after 72 h of continuous drug incubation using an MTT-based cell viability assay (EZ4U, Biomedica, Vienna, Austria) according to the manufacturer's recommendations. Absorbance was measured at 450 nm (vs. 620 nm as reference) using a multimode microplate reader (Tecan Spark, Zurich, Switzerland). Half-maximal inhibitory concentrations (IC50 values) were derived via interpolation from dose–response curves, modeled with the four-parameter logistic (4PL) nonlinear regression model in GraphPad Prism (La Jolla, CA, USA) from at least three independent experiments.

THP1-Dual cells [6] = assay: Western blot analysis of STING downstream pathway, DNA damage and cell death markers; type: cell-based, human; conditions: 24 h
Description: The THP1-Dual cell model was seeded at 1 × 10^6 cells per well in six-well plates. After 24 h of recovery, the compounds were applied at the concentrations indicated. After 24 h of drug exposure, whole-cell protein isolation was performed as described previously.[14] Sodium dodecyl sulfate polyacrylamide gel electrophoresis was performed. Proteins were transferred onto polyvinylidene difluoride membranes (Thermo Scientific, Waltham, MA, USA). Antibodies targeting STING (##13 647; 1 : 1000), phospho-STING (#19 781; 1 : 500), TBK1 (#3504; 1 : 500), IRF-3 (#4302; 1 : 500), phospho-p65 (#3033; 1 : 500), ISG15 (#2743; 1 : 1000), caspase-3 (#9665; 1 : 1000), cleaved caspase-3 (#9661; 1 : 1000), PARP (#9532; 1 : 1000), and cleaved PARP (#9541; 1 : 1000) were purchased from Cell Signaling Technology (Danvers, MA, USA). The p65 antibody (#sc-372; 1 : 1000) was purchased from Santa Cruz and the phospho-H2A.X antibody (#05-636-I; 1 : 500) was obtained from Merck (Darmstadt, Germany). The anti-β-actin (#5441; 1 : 2000) antibody was obtained from Sigma-Aldrich. The anti-mouse IgG (#A0168; 1 : 10 000) horseradish peroxidase (HRP)-coupled secondary antibody was purchased from Sigma-Aldrich, and the anti-rabbit IgG (#7074; 1 : 5000) HRP-linked secondary antibody was obtained from Cell Signaling Technology.

[7] = Reduction kinetics with 10 eq. L-ascorbic acid in phosphate buffer, UHPLC; type: physicochemical; conditions: 10 eq. AA, PB pH 7.4, 20 °C; for original compound left in presence of AA: after 5 h
Description: (§2) PB (150 mM, pH 7.4) containing 1 mM platinum compound was incubated at 20 °C, with and without the addition of 10 eq. of AA. The reaction was monitored using a Thermo Scientific Dionex UltiMate 3000 UHPLC system with a Waters Acquity UPLC BEH C18 1.7 μm 3.0 × 50 mm column. Milli-Q water containing 0.1% formic acid and acetonitrile containing 0.1% formic acid were used as eluents. A gradient of 5–95% over 5 min was used with a flow of 0.6 mL min^−1. To evaluate the current state of the reaction, the peak area of the parental complex was used.

[8] = Hydrolytic stability in phosphate buffer, UHPLC; type: physicochemical; conditions: 1 mM, 150 mM PB pH 7.4, 20 °C, over 5 h
Description: as §2

THP1-Dual cells [9] = assay: Intracellular platinum accumulation in vitro by ICP-MS; type: cell-based, human; conditions: 3 h exposure, compared to oxaliplatin
Description: The THP1-Dual cell model was seeded at 1 × 10^6 cells per well in six-well plates. After 24 h of recovery, the compounds were applied at the concentrations indicated in triplicate. After 3 h of drug exposure, the cells were prepared as published previously.[13] […] The lysate was filled up to 8 mL with water. The platinum concentration was determined by ICP-MS analysis. Platinum and rhenium standards were derived from CPI International (Amsterdam, the Netherlands). The total platinum content was determined with an Agilent 7800 quadrupole-based ICP-MS instrument (Agilent Technologies, Tokyo, Japan) equipped with an Agilent SPS 4 autosampler (Agilent Technologies, Tokyo, Japan) and a MicroMist nebulizer at a sample uptake rate of approximately 0.2 mL min^−1. […] Argon was used as a plasma gas (15 L min^−1) and as a carrier gas (∼1.1 L min^−1). The dwell time was set to 0.1 s and the measurements were performed in 12 replicates with 100 sweeps. Rhenium served as an internal standard for platinum.

[10] = H-151 10 μM added 2 h before the compounds
[11] = 24 h, maximal response relative to SR-717

SMILES: CCc1ccc(NC(=O)Nc2c[nH]c3ccccc23)cc1 [H-151]
- effect on agonist- and prodrug-induced NF-κB reporter signal [1, 10]: completely abolished
- effect on agonist- and prodrug-induced IRF reporter signal [2, 10]: completely abolished

SMILES: COc1cc2cc(C(=O)CCC(=O)O)sc2cc1OC [MSA-2]
- tumor growth (CT-26 tumors): significantly inhibited malignant growth
- mRNA induction of immune response genes (IFN-β, ISG15, IFIT1, CXCL10, CCL5) (THP1-Dual cells [3]): distinctly induced
- secretion of cytokines and chemokines (THP1-Dual cells [4]): induced distinct secretion of cytokines and chemokines
- NF-κB EC50 ratio fold MSA-2 ([1]; 24 h): 1.0 fold
- activation of NF-κB signaling pathway ([1]; 24 h): robustly activated
- NF-κB %EMAX of MSA-2 ([1]; 24 h, maximal response relative to MSA-2): 100%
- EC50 [1]: 17.7 µM
- IC50 [5]: > 75 µM
- DNA damage (p-H2A.X upregulation, cleavage of caspase-3 and PARP) (THP1-Dual cells [6]): induced DNA damage
- induction of ISG15 (THP1-Dual cells [6]): triggered
- phosphorylation of NF-κB (p65) (THP1-Dual cells [6]): only detected in cells treated with MSA-2
- IRF EC50 ratio fold MSA-2 ([2]; 24 h): 1.0 fold
- activation of IRF signaling pathway ([2]; 24 h): robustly activated
- fold lower IRF-inducing activity compared to SR-717 ([2]; 24 h): ~3.1 fold
- IRF %EMAX of MSA-2 ([2]; 24 h, maximal response relative to MSA-2, highest tested dose 100 μM): 100%
- EC50 [2]: 9.1 µM
- impact of reducing conditions on IRF-induced reporter signal (AUC ratio +AA/−AA) ([2]; AA 50 μM): no notable modulation

SMILES: CC(=O)[O][Pt-2]12([O]C(=O)c3cc(F)c(F)cc3N)([NH2+][C@@H]3CCCC[C@H]3[NH2+]1)[O]C(=O)C(=O)[O]2 [Ox-Bz-F2-NH2]
- original compound left in presence of AA [7]: approximately 80%

SMILES: CC(=O)Nc1cc(F)c(F)cc1C(=O)[O][Pt-2]12([O]C(C)=O)([NH2+][C@@H]3CCCC[C@H]3[NH2+]1)[O]C(=O)C(=O)[O]2 [Ox-Bz-F2-NHAc]
- original compound left in presence of AA [7]: 40%

SMILES: CC(=O)[O][Pt-2]12([O]C(=O)c3ccc(F)c(F)c3)([NH2+][C@@H]3CCCC[C@H]3[NH2+]1)[O]C(=O)C(=O)[O]2 [Ox-Bz-F2]
- original compound left in presence of AA [7]: approximately 95%

SMILES: CC(=O)[O][Pt-2]12([O]C(=O)c3ccccc3)([NH2+][C@@H]3CCCC[C@H]3[NH2+]1)[O]C(=O)C(=O)[O]2 [Ox-Bz]
- original compound left in presence of AA [7]: approximately 95%

SMILES: COCCOCCOCCOCCC(=O)[O][Pt-2]12([O]C(=O)c3cc(F)c(F)cc3NC(=O)c3ccc(-n4ccnc4)nn3)([NH2+][C@@H]3CCCC[C@H]3[NH2+]1)[O]C(=O)C(=O)[O]2 [Ox-SR-PEG-Es]
- original prodrug remaining in presence of AA ([7]; after ∼3 h): only traces
- hydrolytic stability [8]: No significant hydrolysis
- NF-κB %EMAX of SR-717 [1, 11]: 52%
- EC50 [1]: 35.1 µM
- cellular platinum accumulation (THP1-Dual cells [9]): significantly higher platinum levels compared to oxaliplatin
- IRF %EMAX of SR-717 [2, 11]: 66%
- EC50 [2]: 12.4 µM
